Measurements published in US20050048508A1, “Trehalose receptor and method for detecting trehalose with the same” (KABUSHIKI KAISHA HAYASHIBARA SEIBUTSU KAGAKU KENKYUJO, priority 2002, published 2005).

Target: T1, T1R2 and T1R3 with G protein α-subunits (α15 and α16/Z chimeric protein) (Mus musculus, UniProt Q925D8+Q925I4, E350G/G527D/I706N/P352R/R175Q)
T1 construct: expressed in transfected cells; host or cells: 293 cells, RCB 1637 (human embryonic kidney)
T1 sequence (Q925I4 20-843 R175Q/E350G/P352R/G527D): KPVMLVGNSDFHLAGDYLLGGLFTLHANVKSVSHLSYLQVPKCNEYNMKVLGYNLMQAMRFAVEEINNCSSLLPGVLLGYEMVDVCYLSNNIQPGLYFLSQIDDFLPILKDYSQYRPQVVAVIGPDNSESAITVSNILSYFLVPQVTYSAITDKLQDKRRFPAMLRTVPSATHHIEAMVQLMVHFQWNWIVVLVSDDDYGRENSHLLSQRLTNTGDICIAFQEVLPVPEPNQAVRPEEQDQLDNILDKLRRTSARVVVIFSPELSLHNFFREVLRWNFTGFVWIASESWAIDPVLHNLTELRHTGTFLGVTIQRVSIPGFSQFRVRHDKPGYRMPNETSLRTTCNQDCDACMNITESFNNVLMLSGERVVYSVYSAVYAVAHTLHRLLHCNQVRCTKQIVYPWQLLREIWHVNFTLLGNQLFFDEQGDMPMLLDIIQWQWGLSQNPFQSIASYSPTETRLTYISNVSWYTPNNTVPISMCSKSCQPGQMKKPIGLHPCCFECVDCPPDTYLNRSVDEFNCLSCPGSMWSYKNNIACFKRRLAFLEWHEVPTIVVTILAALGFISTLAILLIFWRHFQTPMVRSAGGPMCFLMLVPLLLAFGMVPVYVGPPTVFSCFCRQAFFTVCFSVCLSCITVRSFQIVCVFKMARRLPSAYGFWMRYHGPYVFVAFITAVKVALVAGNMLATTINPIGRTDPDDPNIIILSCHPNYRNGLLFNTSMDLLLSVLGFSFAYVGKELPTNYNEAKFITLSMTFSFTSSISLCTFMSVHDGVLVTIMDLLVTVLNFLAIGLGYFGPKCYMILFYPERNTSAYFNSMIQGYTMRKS
T1 sequence (Q925D8 21-858 I706N): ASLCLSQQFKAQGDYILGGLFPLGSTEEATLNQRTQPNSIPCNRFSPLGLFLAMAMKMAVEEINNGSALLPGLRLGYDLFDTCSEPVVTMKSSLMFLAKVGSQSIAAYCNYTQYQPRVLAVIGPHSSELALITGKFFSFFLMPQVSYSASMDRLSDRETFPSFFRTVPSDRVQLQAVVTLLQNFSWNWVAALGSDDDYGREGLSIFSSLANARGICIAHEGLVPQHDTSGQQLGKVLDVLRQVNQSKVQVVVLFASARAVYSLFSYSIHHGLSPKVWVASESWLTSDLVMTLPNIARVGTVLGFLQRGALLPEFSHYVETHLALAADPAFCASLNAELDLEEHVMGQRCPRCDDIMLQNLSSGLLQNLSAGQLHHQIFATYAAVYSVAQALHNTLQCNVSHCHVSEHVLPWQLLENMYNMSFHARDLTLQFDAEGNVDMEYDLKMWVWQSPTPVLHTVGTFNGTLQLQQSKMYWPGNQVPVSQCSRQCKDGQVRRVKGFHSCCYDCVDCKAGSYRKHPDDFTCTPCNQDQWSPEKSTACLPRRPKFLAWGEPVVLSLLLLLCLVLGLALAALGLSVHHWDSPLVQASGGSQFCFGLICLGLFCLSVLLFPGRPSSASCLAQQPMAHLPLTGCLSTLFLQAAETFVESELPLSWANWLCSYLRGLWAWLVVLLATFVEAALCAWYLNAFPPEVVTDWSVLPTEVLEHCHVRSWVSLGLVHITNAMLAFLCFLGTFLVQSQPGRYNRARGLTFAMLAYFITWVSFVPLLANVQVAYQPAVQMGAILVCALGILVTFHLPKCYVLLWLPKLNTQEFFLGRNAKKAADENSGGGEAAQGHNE
Assay: Intracellular calcium ion assay, 293 cells coexpressing G protein α-subunits, T1R2 and T1R3
Format: cell-based
Conditions: 293 cells: T1R2 + T1R3 + G protein α-subunits, 0.67 ml of 1 M saccharide solution added to 2 ml cell suspension, FLUO-4 AM
Protocol: The coexpression vector for the G protein α-subunit α15 and the G protein α16/Z chimeric protein (hereinafter designated as “G protein α-subunits”) obtained in Example 1-3 was gene transferred to 293 cells, RCB 1637, a human embryonic kidney cell line, available from the Riken Bioresource Center, Ibaraki, Japan, by conventional lipofection. The gene transferred cells were suspended in Dulbecco's Modified Eagle's Medium (D-MEM) supplemented with 1 mg/L of “PUROMYCIN”, a trade mane of puromycin commercialized by Edge Biosystems, MD, USA, and 10% (v/v) of fetal calf serum to give a cell density of 2×10^6 cells/ml and cultured in a plastic petri dish for cell culture. After 10 to 14 days of incubation, a puromycin-resistant cell colony was collected and confirmed its production of the G protein α-subunit proteins with an index of their mRNA level by conventional RT-PCR. Thus, a cell line capable of expressing the G protein α-subunit proteins was established. To the cells were gene transferred an expression vector for the sweet taste receptor protein T1R1, T1R2, or T1R3 in Example 2-2; or a coexpression vector for a pair of T1R1 and T1R2, T1R1 and T1R3, or T1R2 and T1R3 by conventional lipofection. The resulting cells were suspended in D-MEM supplemented with 1 mg/L of “PUROMYCIN”, 500 mg/L of “GENETICIN”, and 10% (v/v) of fetal calf serum and cultured in a plastic petri dish for cell culture. […]
The captioned reactivity test was conducted according to a conventional intracellular calcium ion assay: 293 Cells prepared in Example 3, capable of coexpressing the G protein α-subunits and the sweet taste receptor(s), were cultured in a plastic petri dish for cell culture until reaching its confluent phase. […] Two milliliters of the resultant cell suspension was injected into a glass cuvette, commercialized by Hitachi, Ltd., Tokyo, Japan, and analyzed on “HITACHI 650-40”, a fluorescence spectrophotometer commercialized by Hitachi, Ltd., Tokyo, Japan. […]

Structure (SMILES) | Influx of calcium ion | Influx of calcium ion (listed as sucrose)
OC[C@H]1O[C@@](CO)(O[C@H]2O[C@H](CO)[C@@H](O)[C@H](O)[C@H]2O)[C@@H](O)[C@@H]1O [Sucrose, reference compound] | Positive | detected
OC[C@H]1O[C@H](O[C@H]2O[C@H](CO)[C@@H](O)[C@H](O)[C@H]2O)[C@H](O)[C@@H](O)[C@@H]1O [Trehalose] | Positive | 
